Data on four compounds can be found in patent publication EP4806445A1, “USE OF COMPOSITION FOR PREVENTING, ALLEVIATING OR TREATING DIABETIC KIDNEY DISEASE COMPRISING ZINC SALT AND CYCLO-HISPRO AS ACTIVE INGREDIENTS” (Novmetapharma Co., Ltd., priority 2023, dated 2025).

Holding throughout (format): in vivo
Assay [1] relates to KKAy mice. The assay is described as follows: Measurement of urine albumin (albuminuria) in diabetic kidney disease model. The settings on record: week 16 of administration; for albuminuria: 24-hour urine, losartan 20 mg/kg in drinking water, dapagliflozin 2 mg/kg, CycloZ 15 mg/kg oral daily, negative control 51.4; for decrease in albuminuria compared to the negative control group: same doses as E1. As for the experimental part: Five-week-old KKay mice were purchased from Clea, Japan, and as a normal control group, five-week-old C57BL6/J mice were purchased from Daehan Bio Link Co., Ltd. Breeding was performed under constant conditions (temperature: 22±2 °C, relative humidity: 55±10%, circadian cycle: 12 hours), and Purina mouse diet was used as feed and distilled water was used as drinking water. Mice were used in the experiment after a one-week adaptation period following purchase. Lorsartan used in the examples below was purchased from […], and dapagliflozin was purchased from Betapahrma. Metabolic cages were prepared using products from Jeongdo B&P Co., Ltd. Isoflurane, which is necessary for anesthesia and dissection of mice, was purchased from Hana Pharm Co., Ltd., and the RC2 Rodent Circuit Controller Anesthesia System from Vetequip was prepared. Phosphate buffered saline (PBS) was purchased from Hyclone. The KKAy animal model is known to have 10-50 times higher proteinuria (albuminuria) than the db/db animal model, and is reported to show the most severe mesangial matrix expansion among all models. […] The normal control group and the negative control group were orally administered the same amount of distilled water daily. [Table 1] At week 16 of administration, 24-hour urine was collected using a metabolic cage and centrifuged at 2,000 rpm for 10 minutes to remove suspended solids. Albumin was measured with a DCA vantage analyzer (Siemens) and DCA® Microalbumin/Creatinine Urine Test cartridge (Siemens) using urine diluted 1/10 with distilled water.

Assay [2] deals with KKAy mice. The experiment in a line: ACR, drug administration from severe condition, CycloZ, losartan and/or sitagliptin (Example 4). The settings on record: week 9. As for the experimental part: (§1) At week 11 of administration, 24-hour urine was collected using a metabolic cage and centrifuged at 1,000 rpm for 5 minutes to remove suspended solids. Albumin was measured with a DCA vantage analyzer (Siemens) and DCA® Microalbumin/Creatinine Urine Test cartridge (Siemens) using urine diluted 1/2 with distilled water. Creatinine was measured using undiluted urine and a mouse creatinine assay kit (Crystalchem). The measured albumin (mg/dL) value was divided by the creatinine (g/dL) value to derive the ACR (mg/g) value.
After breeding five-week-old KKAy mice of Example 1-1 for 6 weeks, urine was collected for 24 hours and ACR was measured using the same method as in Example 3-2. The groups were randomly divided as shown in Table 5 so that the average ACR values were the same, and then the drug was orally administered daily for 9 weeks from the age of 12 weeks as shown in Table 5. At this time, losartan was dissolved in drinking water to allow a daily intake of 20 mg/kg per subject, and the remaining drugs were orally administered daily.
At week 9 of administration, 24-hour urine was collected using a metabolic cage, and ACR was measured using the same method as in Example 3-2.

Assay [3] deals with KKAy mice. The experiment in a line: ACR, drug administration from severe condition, CycloZ and/or metformin (Example 5). The settings on record: week 12. As for the experimental part: as §1
After breeding five-week-old KKAy mice of Example 1-1 for 6 weeks, urine was collected for 24 hours and ACR was measured using the same method as in Example 3-2. The groups were randomly divided as shown in Table 6 so that the average ACR values were the same, and then the drug was orally administered daily for 12 weeks from the age of 12 weeks as shown in Table 6.
At week 12 of administration, 24-hour urine was collected using a metabolic cage, and ACR was measured using the same method as in Example 3-2.

Assay [4] relates to KKAy mice. The experiment in a line: ACR, drug administration from severe condition, CycloZ and/or sitagliptin (Example 3-3/3-4). The conditions noted are these: week 11. As for the experimental part: as §1
After breeding five-week-old KKAy mice of Example 1-1 for 6 weeks, urine was collected for 24 hours and ACR was measured using the same method as in Example 3-2. The groups were randomly divided as shown in Table 4 so that the average ACR values were the same, and then the drug was orally administered daily for 11 weeks from the age of 12 weeks as shown in Table 4.
At week 11 of administration, 24-hour urine was collected using a metabolic cage, and ACR was measured using the same method as in Example 3-2.

For assay [5], the system named is KKAy mice. The assay is described as follows: ACR, drug administration from mild condition (Example 3-1/3-2). The settings on record: administration from mild stage, week 11. As for the experimental part:
Five-week-old KKAy mice of Example 1-1 were pre-bred for one week and then divided into groups as shown in Table 1 so that the average body weights were the same. The control group was orally administered distilled water for 11 weeks, while Group 1 was orally administered 15 mg/kg of CycloZ, Group 2 was orally administered 10 mg/kg of sitagliptin, and Group 3 was orally administered 10 mg/kg of sitagliptin + 15 mg/kg of CycloZ daily for the same period.
as §1

Where [6] appears, read: administration from severe stage.

Regarding `CCOc1ccc(Cc2cc([C@@H]3O[C@H](CO)[C@@H](O)[C@H](O)[C@H]3O)ccc2Cl)cc1` [Dapagliflozin, dapagliflozin], in assay [1], the albuminuria was determined as 31.1 mg/dL and the “decrease in albuminuria compared to the negative control group” value was determined as 39.5%.

Turning to `CCCCc1nc(Cl)c(CO)n1Cc1ccc(-c2ccccc2-c2nn[nH]n2)cc1` [Losartan, losartan], in assay [1], the albuminuria is on record as 39.3 mg/dL and the “decrease in albuminuria compared to the negative control group” value is 23.5%. In addition, in assay [2] (administration from severe stage (age 12 weeks), CycloZ 15 mg/kg, losartan 20 mg/kg in drinking water, sitagliptin 10 mg/kg, negative control 7,118), the ACR was 7,158 mg/g. Further, the “effect on alleviating ACR (result in words)” value in assay [2] (setting [6]) is reported as “did not show a significant effect on alleviating ACR”.

Turning to `CN(C)C(=N)N=C(N)N` [Metformin, metformin], in assay [3] (administration from severe stage (age 12 weeks), CycloZ 15 mg/kg, metformin 200 mg/kg oral daily, negative control 2,369), the ACR is 2,952 mg/g. The “effect on alleviating ACR (result in words)” value in assay [3] (setting [6]) is listed as “did not show a significant effect on alleviating ACR”.

As to `N[C@@H](CC(=O)N1CCn2c(nnc2C(F)(F)F)C1)Cc1cc(F)c(F)cc1F` [Sitagliptin, sitagliptin], the ACR is 2,301 mg/g in assay [4] (administration from severe stage (age 12 weeks), CycloZ 15 mg/kg, sitagliptin 10 mg/kg oral daily, negative control 4,450) and 4,852 mg/g in assay [5] (CycloZ 15 mg/kg, sitagliptin 10 mg/kg oral daily, negative control 6,379). Further, the “ACR decrease compared to the negative control group” value in assay [4] (setting [6]) is given as 48%. In addition, in assay [5], the “ACR reduced compared to the control group” value is on record as roughly 24%.
